The values that follow are results of earlier work, collected in patent US20080187585A1, “Prolonged-Release Compositions Comprising Torasemide and a Matrix-Forming Polymer” (FERRER INTERNACIONAL S.A., priority 2004, published 2008).

Experiment in data set [1]: not given
This is another data set of the same source.

Turning to `Cc1cccc(Nc2ccncc2S(=O)(=O)NC(=O)NC(C)C)c1` [torasemide, Torasemide], the bioavailability (after oral administration) is reported as 80-90%. Besides, the kinetics entry (oral administration) is given as “linear”. In addition, for the setting “oral administration, man”, the “elimination half-life (t1/2)” value is 3 to 4 h and the “tmax (time to maximum plasma concentration)” value is reported as “approximately 1 hour”. Moreover, in data set [1] (after oral administration), the “time of maximal effects on urine and electrolytes excretions” value is “approximately 2 hours”. In addition, the “dose-response relationship for urinary volume” value in data set [1] (doses from 2.5 to 20 mg) is “linear dose-response relationship”.
